The subject of test [1] is HFD-fed C57BL/6J mice. As to the kind of experiment: Histopathology examination of epididymal WAT and liver tissue. The class given is in vivo. The conditions noted are these: oral gavage daily for 4 weeks. How it is done: (§1) Experimental Animals: the experiments are conducted under the guidelines of the Institutional Animal Care and Use Committee of Central Taiwan University of Science and Technology. As previously described, four-week-old male C57BL/6J mice (n=63) is purchased from the National Laboratory Animal Breeding and Research Center, Ministry of Science and Technology. After 1-week of acclimatization, mice are designed to initiate the study, and the study lasts for 12 weeks. […] The CON group and high-fat control (HF) group are given with vehicle only. The low-fat diet consisted of fat 10%, whereas the high-fat diet (HFD) consisted of fat 45% (of total energy, % kcal). The compositions of the experimental diets are shown as described. At the end of the study, food is derived from the animals (from 10 p.m. to 10 a.m.). On the next day, the mice are sacrificed, and blood and tissue are collected for analysis. Livers, skeletal muscles, and white adipose tissues (WATs) (including epididymal, mesenteric and retroperitoneal WAT) are excised and weighed, and then immediately stored in a freezer at −80° C. Heparin (30 units/mL) (Sigma) is added to blood samples. Plasma samples are collected by centrifugation at 1600 g for 15 min at 4° C. within 30 min, and plasma is obtained for insulin and leptin level analysis.
A portion of the collected epididymal WAT and liver tissue is fixed with formalin (200 g/kg) neutral buffered solution and embedded in paraffin. Sections (8 μm) are cut and stained with hematoxylin and eosin. A microscope (Leica, DM2500) and Leica Digital camera (DFC-425-C) are used for microscopic examination and images taken, respectively.

The subject of test [2] is HFD-fed C57BL/6J mice. Kind of test: Body weight, food intake and tissue weight in HFD-fed mice. To be noted: oral gavage daily for 4 weeks. The class given is in vivo. Here is the method:
as §1
Body Weight, Food Intake and Tissue Weight. Throughout the embodiment, body weight and food intake are daily recorded at the same time. Body weight gain is defined as the difference between 1 day and the next day. The pellet food is weighed and placed in a cage food container. After 24 h, the remaining food is weighed and the crumbs are collected as much as possible. Based on the difference between 1 day and the next day, the daily food intake is calculated.

The subject of test [3] is HFD-fed C57BL/6J mice. Kind of test: Hepatic lipid in HFD-fed mice. The class given is in vivo. To be noted: oral gavage daily for 4 weeks. How it is done:
as §1
Blood Lipid and Hepatic Lipid. Hepatic lipids are extracted as previously described. Liver sample (0.375 g) is homogenized with 1 mL of distilled water for 5 min for the hepatic lipid extraction and analyzed using a triglycerides kit as used for serum lipids.

Test [4] relates to HFD-fed C57BL/6J mice. As to the kind of experiment: Blood glucose, HbA1c, blood lipids, insulin and leptin levels in HFD-fed mice. To be noted: for Blood Profiles FFA / Blood Profiles HDL-C / Blood Profiles HbA1c / Blood Profiles LDL-C: oral gavage daily for 4 weeks. The class given is in vivo. How it is done: as §1
Blood Glucose and HbA1c Levels. Blood samples (0.8 mL) are collected from the retro-orbital sinuses of fasting mice, and glucose level is measured by the glucose oxidase method (model 1500; Sidekick Glucose Analyzer; YSI Inc., Yellow Springs, Ohio, USA). Percent HbA1c is detected with a Hemoglobin A1c kit (BioSystems S.A., Barcelona, Spain). Plasma triglycerides (TG), total cholesterol (TC), free fatty acids (FFA), high-density lipoprotein cholesterol (HDL-C), and low density lipoprotein cholesterol (LDL-C) are determined using commercial assay kits (Triglycerides-E test, Cholesterol-E test, and FFA-C test, Wako Pure Chemical, Osaka, Japan; HDL-C-test and LDL-C-test, Roche Diagnostics GmbH, Indianapolis, USA) according to their instructions. A mouse insulin ELISA kit (Sibayagi, Gunma, Japan) and mouse leptin ELISA kit (Morinaga, Yokohama, Japan) are used to measure blood insulin and leptin levels, respectively.

In test [5] the test system is membrane GLUT4. As to the kind of experiment: Western blotting of membrane GLUT4 in skeletal muscle. To be noted: HFD-fed mice, 10 mg/kg/day. The class given is in vivo, C57BL/6J mice. Here is the method: as §1
Protein extractions and immunoblots for the determination of membrane GLUT4, phospho-AMPK (Thr172), and phospho-Akt (Ser 473) proteins are carried out on frozen skeletal muscle and liver tissue from mice, which follows a previous paper. Additionally, membrane GLUT4 is carried out on frozen skeletal muscle from mice, and the total membrane fractions are collected with buffer and centrifuged as a previously described. The protein contents of membrane GLUT4, phospho-AMPK, phospho-Akt, total AMPK, and total Akt are detected by western blotting. Western blotting has been determined as described elsewhere. Subsequently, antibodies are detected using horseradish peroxidase linked to a goat anti-IgG rabbit secondary antibody and visualized using an ECL system. Membrane GLUT4, structural proteins GAPDH and β-actin are purchased from Santa Cruz Biotechnology (Santa Cruz, Calif., USA); phospho-AMPK was obtained from Abcam Inc. (Cambridge, Mass., USA); phospho-Akt, total AMPK, and total Akt are from Cell Signaling Technology, Inc. (Danver Mass., USA); the BCA protein assay kit is from Thermo Scientific (Rockford, Ill., USA); and the ECL reagent kit is from GE Healthcare BioSciences (Buckinghamshire, UK). The secondary antibody antirabbit is from Jackson ImmunoResearch Laboratories, Inc. (West Grove, Pa., USA). The density blotting is analyzed using Alpha Easy FC software (Alpha Innotech Corp., Randburg, South Africa). Structural proteins GAPDH and β-actin are obtained by stripping the nitrocellulose membrane proteins of liver and skeletal muscle, respectively.
For orientation: Immunoblotting shows a protein as a band on a membrane.

As to `CC(C)OC(=O)C(C)(C)Oc1ccc(C(=O)c2ccc(Cl)cc2)cc1` [Feno, fenofibrate, reference compound], in test [1] (250 mg/kg/day), the “average area of adipocytes (epididymal WAT)” value stood at 4175.4±322.9 μm2. Further, in test [2] (250 mg/kg/day), the “Absolute Tissue Weight BAT” value is given as 0.142 ± 0.012 g, the “Absolute Tissue Weight EWAT” value came out at 0.924 ± 0.069 g, the “Absolute Tissue Weight Liver” value came to 1.046 ± 0.033 g and the “Absolute Tissue Weight MWAT” value is listed as 0.295 ± 0.009 g. For the same compound, in test [2] (250 mg/kg/day), the “Absolute Tissue Weight RWAT” value is recorded as 0.249 ± 0.028 g, the “Absolute Tissue Weight Skeletal muscle” value was 0.569 ± 0.069 g and the weight gain is reported as 0.69 ± 0.63 g. Besides, in test [3] (250 mg/kg/day), the “Liver Lipids total lipid” value is recorded as 63.8 ± 4.7 mg/g and the “Liver Lipids triacylglycerol” value came to 48.4 ± 5.6 µmol/g. For the same compound, in test [4] (250 mg/kg/day), the “decrease of the circulating TG level” value is listed as 47.9%, the “Blood Profiles FFA” value turned out to be 0.94 ± 0.08 meq/L, the “Blood Profiles HDL-C” value is reported as 80.3 ± 4.5 mg/dL and the “Blood Profiles HbA1c” value is 6.4 ± 0.7 %. In addition, in test [4] (250 mg/kg/day), the “Blood Profiles LDL-C” value is listed as 105.8 ± 10.4 mg/dL.
Take `CN(CCOc1ccc(CC2SC(=O)NC2=O)cc1)c1ccccn1` (stereo not drawn) [Rosi, rosiglitazone, reference compound]: in test [5], the “enhancement of muscular membrane GLUT4 protein” value was roughly 2.1 fold. In addition, the “average area of adipocytes (epididymal WAT)” value in test [1] (10 mg/kg/day) turned out to be 5598.6±162.7 μm2. Also, in test [2] (10 mg/kg/day), the “Absolute Tissue Weight BAT” value is reported as 0.175 ± 0.018 g, the “Absolute Tissue Weight EWAT” value came to 0.813 ± 0.069 g, the “Absolute Tissue Weight Liver” value came to 0.816 ± 0.038 g and the “Absolute Tissue Weight MWAT” value amounted to 0.257 ± 0.019 g. In addition, in test [2] (10 mg/kg/day), the “Absolute Tissue Weight RWAT” value was found to be 0.244 ± 0.042 g, the “Absolute Tissue Weight Skeletal muscle” value was 0.737 ± 0.094 g and the weight gain was 1.71 ± 0.56 g. In test [3] (10 mg/kg/day), the “Liver Lipids total lipid” value came out at 65.1 ± 5.3 mg/g and the “Liver Lipids triacylglycerol” value was 44.5 ± 3.2 µmol/g. In test [4] (10 mg/kg/day), the “Blood Profiles FFA” value is reported as 1.00 ± 0.09 meq/L, the “Blood Profiles HDL-C” value was determined as 73.1 ± 5.8 mg/dL, the “Blood Profiles HbA1c” value amounted to 6.2 ± 0.4 % and the “Blood Profiles LDL-C” value was determined as 86.7 ± 7.7 mg/dL.
